# Reference: patent US7812045B2, “Antifungal triazole derivatives” (Daewoong Pharmaceutical Co., Ltd., priority 2005, dated 2010)
# Like-named read-outs stand apart in the source and are kept apart here.
# What was measured:
# [1] = tested on: Aspergillus flavus ATCC MYA-1004; test: In vitro assay for antifungal activity (MIC90); assay type: cell-based; conditions: RPMI 1640, growth read after 48 hours, duplicate; for MIC90: read-out: MIC90 (concentration at which 90% of the fungi were inhibited compared to the negative control)
# Protocol: (§1) Fungal strains to be tested were inoculated onto Sabouraud dextrose agar, YM agar, and potato dextrose agar and cultured at 35° C. for two to three days. Individual single colonies of the yeast fungi selected out of the cultured strains were suspended in 5 ml of 0.85% sterile saline, followed by correction to adjust the absorbance thereof at 530 nm to 0.108. The suspensions were diluted serially by 1:50 and then 1:20 in RPMI 1640 media to prepare liquid inocula ranging in cell count from 1.0×10^3 to 5.0×10^3 CFU/ml. As for filamentous fungi, their spores were suspended in 0.85% sterile saline and the suspensions were corrected with sterile saline to show optical transmittance at 530 nm of 80 to 82%. A dilution of 1:50 was made with RPMI 1640 media to prepare liquid inocula having cell counts from […] to 5×10^4 CFU/ml.
# (§2) Antifungal samples were prepared by diluting the compounds of the present inventions in RPMI 1640 media to serial concentrations from 0.0625 to 32 μg/ml. As a vehicle, DMSO was contained in a final concentration of 1% (V/V) in the antifungal samples. 0.1 ml of each of the dilutions in series was added to equal volume of each of the fungal inocula.
# [2] = tested on: Aspergillus fumigatus ATCC MYA-1163; test: In vitro assay for antifungal activity (MIC90); assay type: cell-based; conditions: RPMI 1640, growth read after 48 hours, duplicate; for MIC90: read-out: MIC90 (concentration at which 90% of the fungi were inhibited compared to the negative control)
# Protocol: as §1, §2
# [3] = tested on: Aspergillus niger ATCC 9142; test: In vitro assay for antifungal activity (MIC90); assay type: cell-based; conditions: duplicate; for MIC90: ATCC9142, RPMI 1640, growth read after 48 hours, read-out: MIC90 (concentration at which 90% of the fungi were inhibited compared to the negative control)
# Protocol: as §1, §2
# [4] = tested on: Aspergillus terreus ATCC 28301; test: In vitro assay for antifungal activity (MIC90); assay type: cell-based; conditions: duplicate; for MIC90: ATCC28301, RPMI 1640, growth read after 48 hours, read-out: MIC90 (concentration at which 90% of the fungi were inhibited compared to the negative control)
# Protocol: as §1, §2
# [5] = tested on: Candida albicans ATCC 32033; test: In vitro assay for antifungal activity (MIC90); assay type: cell-based; conditions: duplicate; for MIC90: ATCC32033, RPMI 1640, growth read after 24 hours, read-out: MIC90 (concentration at which 90% of the fungi were inhibited compared to the negative control)
# Protocol: as §1, §2
# [6] = tested on: Candida glabrata ATCC 34138; test: In vitro assay for antifungal activity (MIC90); assay type: cell-based; conditions: duplicate; for MIC90: Nakaseomyces glabratus, ATCC34138, RPMI 1640, growth read after 24 hours, read-out: MIC90 (concentration at which 90% of the fungi were inhibited compared to the negative control)
# Protocol: as §1, §2
# Candida krusei ATCC 6258 = test: In vitro assay for antifungal activity (MIC90); assay type: cell-based; conditions: duplicate; for MIC90: Pichia kudriavzevii, ATCC6258, RPMI 1640, growth read after 24 hours, read-out: MIC90 (concentration at which 90% of the fungi were inhibited compared to the negative control)
# Protocol: as §1, §2
# [7] = tested on: Cryptococcus neoformans ATCC 4065; test: In vitro assay for antifungal activity (MIC90); assay type: cell-based; conditions: for MIC90: ATCC4065, RPMI 1640, duplicate, read-out: MIC90 (concentration at which 90% of the fungi were inhibited compared to the negative control)
# Protocol: as §1, §2
# [8] = tested on: Candida albicans (ATCC 36082); test: In vivo assay for antifungal activity (survival of infected mice); conditions: ICR mice infected i.v. with Candida albicans ATCC 36082; for % Survival on Day 21: 20 mg/kg orally once a day for seven days (day 0 to day 6), groups of 10
# Protocol: Candida albicans (ATCC 36082) was grown in YM broth on a rotary shaker (200 rpm, 26° C.) for about 12 hours to a concentration of 2.5×10^7 CFU/ml and used to infect ICR mice at a dose of 0.2 ml/head via caudal veins. Suspensions or solutions of the azole compounds in a 25% beta-hydroxypropyl methylcellulose base were orally administered at a dose of 20 mg/kg to respective infected ICR mice in groups of 10, the condition and body weights of the mice were monitored, and autopsies were finally conducted. For a negative control, the vehicle alone was used while fluconazole was administered to a positive control. The mice were inoculated once with the fungal preparation on the day of commencement of the administration. The test materials of interest and the positive control material were orally administered to the inoculated mice once a day for seven days from day 0 to day 6, with the first oral administration made five hours after the fungal inoculation (day 0). The periods of time for which the infected mice lived were counted.
# The number of mice which survived the fungal infection for 21 days following the inoculation was represented as % survival for each test group, and the results are given in Table 11, below. All members of the negative control were dead 8 days after the fungal infection, while all of the groups administered with Compound 50 were dead 18 days after the fungal infection.
# Assay for acute toxicity = assay type: in vivo; conditions: mice; oral administration, to a dose of 1000 mg/kg; observed for two weeks; suspension in 25% beta-hydroxypropyl methylcellulose base or polyethylene glycol 400
# HepG2 cells [9] = test: Assay for cytotoxicity in human hepatocytes (Neutral red); conditions: overnight incubation, absorbance at 540 nm, triplicate, compound concentration not given
# HepG2 cells [10] = tested on: HepG2 cells
# Protocol: HepG2 cells were aliquoted at a population of 5×10^4 counts per well of 96-well plates and grown at 37° C. in a 5% CO2 incubator for 1 day. The culture medium in each well was replaced with a fresh medium containing the compounds of interest, followed by overnight incubation in the incubator. Following the addition of 100 μl of a 100 μg/ml Neutral red solution into each well, the cells were stained for 3 hours in the incubator and fixed in 1% formaldehyde with 1% CaCl2. The cells were destained in 1% glacial acetic acid plus 50% ethanol, followed by measurement for absorbance at 540 nm. Cytotoxicity was expressed as percentages of optical density relative to that of the control, treated with none of the compounds.
# [11] = RPMI 1640, growth read after 48 hours
# [12] = RPMI 1640, growth read after 24 hours
compound,measurement,setting,value
"C[C@@H](N1NCc2ccccc21)[C@](O)(Cn1cncn1)c1ccc(F)cc1F [Example 50, (2R,3R)-2-(2,4-Difluorophenyl)-3-(2H-indazol-1-yl)-1-(1H-1,2,4-triazol-1-yl)butan-2-ol]",MIC90,[1],2 µg/mL
same,MIC90,[2],4 µg/mL
same,MIC90,[3],8 µg/mL
same,MIC90,[4],4 µg/mL
same,MIC90,[5],≤ 0.015 µg/mL
same,MIC90,[6],2 µg/mL
same,MIC90,Candida krusei ATCC 6258,0.5 µg/mL
same,MIC90,[7],0.063 µg/mL
same,time after the fungal infection at which all mice of the group were dead,[8]; 20 mg/kg orally once a day for seven days,18 days
same,% Survival on Day 21,[8],0%
same,acute toxicity: toxic syndromes observed,Assay for acute toxicity,no toxic syndromes
same,Cytotoxicity (percentages of optical density relative to that of the control),HepG2 cells [9],5.2%
C[C@@H](n1nc(Cl)c2ccccc21)[C@](O)(Cn1cncn1)c1ccc(F)cc1F [Example 52],Cytotoxicity (percentages of optical density relative to that of the control),HepG2 cells [10],5.6%
Cc1c2c(Cl)cccc2nn1[C@H](C)[C@](O)(Cn1cncn1)c1ccc(F)cc1F [Example 68],Cytotoxicity (percentages of optical density relative to that of the control),HepG2 cells [10],2.4%
Cc1nn([C@H](C)[C@](O)(Cn2cncn2)c2ccc(F)cc2F)c2cccc(Cl)c12 [Example 69],Cytotoxicity (percentages of optical density relative to that of the control),HepG2 cells [10],1.6%
C[C@@H](n1ncc2cc(NCc3cccc(Cl)c3)ccc21)[C@](O)(Cn1cncn1)c1ccc(F)cc1F [Example 240],Cytotoxicity (percentages of optical density relative to that of the control),HepG2 cells [10],5.2%
"C[C@@H](N1Cc2cc(NCc3ccc(Cl)cc3)ccc2N1)[C@](O)(Cn1cncn1)c1ccc(F)cc1F [Example 245, (2R,3R)-3-(5-(4-chlorobenzylamino)-1H-indazol-2-yl)-2-(2,4-difluorophenyl)-1-(1H-1,2,4-triazol-1-yl)butan-2-ol]",MIC90,[1],0.5 µg/mL
same,MIC90,[2],0.5 µg/mL
same,MIC90,[3],2 µg/mL
same,MIC90,[4],0.5 µg/mL
same,MIC90,[5],≤ 0.015 µg/mL
same,MIC90,[6],4 µg/mL
same,MIC90,Candida krusei ATCC 6258,0.5 µg/mL
same,MIC90,[7],0.125 µg/mL
same,% Survival on Day 21,[8],40%
same,acute toxicity: toxic syndromes observed,Assay for acute toxicity,no toxic syndromes
same,Cytotoxicity (percentages of optical density relative to that of the control),HepG2 cells [9],9.9%
C[C@@H](n1ncc2cc(N(C)C)ccc21)[C@](O)(Cn1cncn1)c1ccc(F)cc1F [Example 310],MIC90 (concentration at which 90% of the fungi were inhibited compared to the negative control),[1],1 µg/mL
same,MIC90 (concentration at which 90% of the fungi were inhibited compared to the negative control),[2],2 µg/mL
same,MIC90 (concentration at which 90% of the fungi were inhibited compared to the negative control),[3]; [11],2 µg/mL
same,MIC90 (concentration at which 90% of the fungi were inhibited compared to the negative control),[4]; [11],2 µg/mL
same,MIC90 (concentration at which 90% of the fungi were inhibited compared to the negative control),[5]; [12],0.063 µg/mL
same,MIC90 (concentration at which 90% of the fungi were inhibited compared to the negative control),[6]; [12],8 µg/mL
same,MIC90 (concentration at which 90% of the fungi were inhibited compared to the negative control),Candida krusei ATCC 6258; [12],1 µg/mL
same,MIC90 (concentration at which 90% of the fungi were inhibited compared to the negative control),"[7]; RPMI 1640, duplicate",0.5 µg/mL
same,% Survival on Day 21,[8],40%
same,acute toxicity: toxic syndromes observed,Assay for acute toxicity,no toxic syndromes
